Test results: patent US10966962B2, “Method for treating neurodegenerative diseases” (THE BOARD OF TRUSTEES OF THE LELAND STANFORD JUNIOR …, priority 2014, dated 2021)

Columns and labels:
microglia [1] = experiment: Microglial metabolic phenotyping in MPTP-treated animals (Slc2a1 flow cytometry, ex vivo lactic acid production); set-up: species or system mice; details: 3 oral doses
Source text: For measuring microglial expression of glucose transporter Slc2a1, MPTP-ZLN (n=10), MPTP-Ctrl (n=14), and Veh animals (n=14) were sacrificed. Brain microglia were phenotyped with antibody directed against glucose transporter Slc2a1 (RnD) for flow cytometric acquisition (LSRII, BD) and analysis (FlowJo). For measuring microglial glycolysis, MPTP-ZLN (n=8), MPTP-Ctrl (n=6), and Veh animals (n=6) were sacrificed. Microglia were sorted by flow cytometry and subjected to lactic acid production assays ex vivo (Cayman Chem) for glycolysis measurement. Y-axis represents Slc2a1 expression in median fluorescence units (MFI, A) and lactic acid production in micromolar units ([…], B). […] ANOVA was used for statistical analyses.

STZ-treated mice = experiment: Disease severity in acute STZ model of AD; format: in vivo; details: STZ-ZLN mice
Procedure: To induce symptoms of AD, STZ (3 mg/kg, Sigma) was administered via intracerebral injection ([…] et al, Int J Neurosci, PMID 24494726, 2014). This is a well-established model of the sporadic form of AD. Briefly, animals were anesthetized and STZ solution in 5 μl artificial cerebrospinal fluid (Harvard Apparatus) was injected through the skull with a 50 μl syringe. Control animals received a similar volume of artificial cerebrospinal fluid without STZ. The injections were performed twice, on Day 1 and Day 3. […] Treatment with ZLN005 continued on a daily schedule until Day 4, when the animals were evaluated. […] In contrast, in STZ-Ctrl mice, only 10% were active, 70% were lethargic, and 20% of these animals had hind limb paralysis. […] The inventors designed a disease scoring system based on evidence of tissue inflammation: with scores of 1 (mild inflammation, increased vascularization/bleeding of internal organs), 2 (moderate inflammation, severe vascularization/bleeding of internal organs), and 3 (severe inflammation, intestinal or stomach swelling). […] The disease score presented in the example is the total score of the two scoring systems. […] Unpaired t-test was used for statistical analysis.

microglia [2] = experiment: Microglia metabolic phenotype in 5XFAD AD transgenic animals (MitotrackerGreen, 2-NBDG); format: in vivo, mice; details: 25 mg/kg orally 3 times a week for 4 weeks, 7 weeks of age
Procedure: AD transgenic animals were orally treated 3 times a week for 4 weeks with 0.5% methylcellulose or ZLN005 (Sigma) at 25 mg/kg in 0.5% methylcellulose, starting at 3 weeks of age. For studies of microglia, 5[…]=10) and 5XFAD-Ctrl (n=8) animals and WT animals (n=11) were sacrificed at 7 weeks of age. PBS-perfused brain tissues of sacrificed animals were digested with Collagenase IV and processed for flow cytometry. Brain microglia were phenotyped with 2-NBDG and MitotrackerGreen (Invitrogen) for flow cytometric acquisition (LSRII, BD) and analysis (FlowJo). The results are summarized in FIG. 13; Y-axis represents % of microglia that highly expressed MitotrackerGreen (A) and had taken up 2-NBDG (B). Mitochondrial respiration and glycolysis are two key energy generating pathways in living cells. In immune cells like microglia, inflammatory transformation is associated with upregulation of glucose utilization and depression of mitochondrial biogenesis and function. […] ANOVA was used for statistical analyses.

MPTP-treated animals = experiment: Wheel-running test in MPTP model of PD; format: in vivo, mice; details: 25 mg/kg orally 7 days, accelerating speed 5-15 rpm, Day 8
Procedure: The wheel-running test has been widely used as one of the most reliable measurements of behavioral dysfunction in animal models of neurodegeneration ([…] et al, Behav Brain Res, 125:109-25, 2001). In this study, animals were trained to run on a treadmill at specific speed and training duration before undergoing a formal test of motor skills. Motor performance of animals was evaluated by the time (seconds) that they remained running on the treadmill, which required motor coordination and strength. […] Animals with microglia-specific deletion of Ppargc1a were generated as described in Example 1. At 7 weeks of age, these animals were subjected to 1.5 weeks of training on a treadmill at a constant speed 10 rpm (rotations per minute) and then 1.5 weeks of training at an accelerating speed from 5-15 rpm. After the training period at 10 weeks of age, animals were treated with MPTP and tested for motor performance at an accelerating speed from 5-15 rpm. […] Unpaired t-tests were used for statistical analyses.

[3] = system: CD115+CD11b+blood monocytes; experiment: Systemic inflammation in ALS transgenic animals (blood monocytes, serum TNF-α ELISA); format: in vivo, mice; details: 25 mg/kg orally 3 times a week for 8 weeks
Procedure: ALS transgenic animals were orally treated 3 times a week for 8 weeks with 0.5% methylcellulose or ZLN005 (Sigma) at 25 mg/kg in 0.5% methylcellulose, starting at 5 weeks of age. For measuring the frequency of CD115+CD11b+blood monocytes, ALS-Ctrl transgenic animals (n=10), ALS-ZLN (n=10), and WT animal (n=10) were sacrificed at 13 weeks of age. The Y-axis in FIGS. 21A and 21B represents % of total monocytes and % of Ly6C+ inflammatory monocytes among circulating immune cells.

DLB transgenic animals = experiment: Wheel-running test in DLB transgenic animals (SNCA*A53T); format: in vivo, mice; details: 25 mg/kg orally 3 times a week for 12 weeks
Procedure: […] transgenic mice, an animal model in which the mutated form of human alpha synuclein is overexpressed, were generated to study pathological mechanisms in PD and DLB (Lee et al, Proc Natl Acad Sci USA. 2002, 13:8968-8970). […] DLB transgenic animals were purchased from Jackson Laboratories and were orally treated 3 times a week with 0.5% methylcellulose (Ctrl) or ZLN005 (ZLN) at 25 mg/kg in vehicle, starting at 8 weeks of age for 12 weeks. Subsequently, at 20 weeks of age, these animals were subjected to 1.5 weeks of training on a treadmill at a constant speed 10 rpm and then 1.5 weeks of training at an accelerating speed from 5-15 rpm, similar to those described in Example 8. After the training period at 21.5 and 23 weeks of age, animals were tested for motor performance at a constant speed and at an accelerating speed, respectively. DLB-ZLN mice (n=11) show an increase in latency to fall in comparison to DLB-Ctrl mice (n=9) at a constant speed of 10 rpm (271.5 seconds vs. 252.8 seconds). […] Thus, motor dysfunction of DLB mice was alleviated by ZLN005 treatment. Unpaired t-tests were used for statistical analyses.

CC(C)(C)c1ccc(-c2nc3ccccc3[nH]2)cc1 [ZLN005, 2-(4-tert-butylphenyl)-1H-benzimidazole]
lactic acid production in microglia (microglia [1]; Day 4, ex vivo, vs MPTP-Ctrl): decreased | glucose transporter Slc2a1 expression in microglia (microglia [1]; Day 4, vs MPTP-Ctrl): decreased | animals active (STZ-treated mice; 25 mg/kg orally daily, Day 4): 33% | animals paralyzed (STZ-treated mice; 25 mg/kg orally daily, Day 4): none | animals showing evidence of lethargy (STZ-treated mice; 25 mg/kg orally daily, Day 4): 66% | mean disease score (STZ-treated mice; day 4, total of inflammation and physical activity scores): 1.6 | glucose uptake in microglia (2-NBDG) (microglia [2]): decreased | mitochondrial mass in microglia (Mitotracker Green) (microglia [2]): enhanced | latency to fall, wheel running (MPTP-treated animals; MPTP-treated Cre animals): not present in Cre animals | latency to fall, wheel running (MPTP-treated animals; MPTP-treated FF animals): performed significantly better than vehicle treated mice | % of Ly6C+ inflammatory monocytes among circulating immune cells ([3]; 13 weeks of age): decreased | % of total monocytes among circulating immune cells ([3]; 13 weeks of age): decreased | serum levels of TNF-α ([3]; ELISA): significantly suppressed | latency to fall (DLB transgenic animals; accelerating speed 5-15 rpm, p <0.05 vs Ctrl): 194.0 s | latency to fall (DLB transgenic animals; constant speed 10 rpm, difference to Ctrl not statistically significant): 271.5 s
